Data published in patent publication US9078811B2, “Methods of increasing oral bioavailability of tetracyclines” (Paratek Pharmaceuticals, Inc., priority 2006, dated 2015).
Counter-ions that a name gives are not always drawn.

Key:
Assay type in all cases: in vivo
[1] = Effects of permeability enhancers on bioavailability, oral gavage in rats
Procedure: As a control, a solution of 9-[(2,2, dimethyl-propyl amino)-methyl]-minocycline freebase (“freebase”) was prepared using sterile water and the final pH was adjusted to ˜5. To prepare the sodium caprate (sodium decanoate, a compound that increases paracellular permeability) containing solution, the freebase was first dissolved in sterile water and sodium caprate was then added to a final concentration of 13 mM. The resulting solution was administered to rats via oral gavage without pH adjustment. The solution of freebase containing 1.5% chitosan was then prepared by first dissolving the freebase in sterile water and then adjusting the pH of this solution (pH ˜8.1) to a final pH ˜5 using 1N HCl. Chitosan was then added to a final concentration of 1.5% and the resulting solution was administered to rats via oral gavage as a slurry.

[2] = PK following intravenous administration in rats; conditions: for AUC: IV 1 mg/kg, jugular vein
Procedure: The bioavailability of 9-[(2,2, dimethyl-propyl amino)-methyl]-minocycline following intravenous administration in rats was studied. The freebase (“FB”) and the HCl salt (“HCl salt”) of 9-[(2,2, dimethyl-propyl amino)-methyl]-minocycline were used. All formulations were prepared fresh on the day of the experiment. Samples for pharmacokinetic analysis were collected from a cannula within the carotid artery of the rats. Intravenous doses of (1 mg/kg) were administered to rats through cannulas in either the jugular or portal veins.

[3] = PK and bioavailability following intra-duodenal administration in rats
Procedure: In order to measure the effect of delivering 9-[(2,2, dimethyl-propyl amino)-methyl]-minocycline directly into the duodenum, rats bearing duodenal cannulas were administered 9-[(2,2, dimethyl-propyl amino)-methyl]-minocycline freebase alone or in combination with bioavailability enhancing agents to assess their effects on bioavailability.

[4] = PK and oral bioavailability following dosing via oral gavage in rats
Procedure: Solutions of 9-[(2,2, dimethyl-propyl amino)-methyl]-minocycline freebase (5 mg/kg [2 ml/kg]) were administered by oral gavage. The solutions were composed of 9-[(2,2, dimethyl-propyl amino)-methyl]-minocycline alone or in combination with bioavailability enhancing agents to assess their effect on oral bioavailability.
The % F was calculated using the IV data presented in Example 1 and the equation: % F=Oral AUC/IV AUC.

[5] = rats with duodenal cannulas, intra-duodenal administration

SMILES	% F [1] [%]	AUC [1] [ng·h/mL]	AUC ([2]; fasted, 1 mg/kg)	differences in pharmacokinetic parameters, freebase vs HCl salt ([2]; IV, fasted animals)	effects of first pass hepatic elimination on pharmacokinetics ([2]; after IV dosing)	% F [3, 5] [%]	AUC [3, 5] [ng·h/mL]	change in AUC when administered directly to the duodenum ([3]; rats, intra-duodenal)	% F (oral bioavailability) ([4]; oral gavage 5 mg/kg, calculated using the IV data of Example 1) [%]	AUC ([4]; oral gavage, 5 mg/kg [2 ml/kg] solution) [ng·h/mL]	AUC ([2]; fed) [µg·h/mL]	total exposure (AUC) and clearance, portal vein vs jugular vein ([2]; IV, fasted animals)	tendency for higher clearance in a fed group ([2]; IV, fed vs fasted) [%]
CN(C)c1cc(CNCC(C)(C)C)c(O)c2c1C[C@H]1C[C@H]3[C@H](N(C)C)C(O)=C(C(N)=O)C(=O)[C@@]3(O)C(O)=C1C2=O [FB, 9-[(2,2, dimethyl-propylamino)-methyl]-minocycline]	11.7 ± 4.1	330 ± 120	0.57 (0.50; 0.63) ug*hr/mL	no significant differences	no significant effects	15.4 ± 5.2	440 ± 150	significant increase in AUC	11.7 ± 4.1	330 ± 120	–	–	–
CN(C)c1cc(CNCC(C)(C)C)c(O)c2c1C[C@H]1C[C@H]3[C@H](N(C)C)C(O)=C(C(N)=O)C(=O)[C@@]3(O)C(O)=C1C2=O [HCl salt, 9-[(2,2, dimethyl-propylamino)-methyl]-minocycline]	–	–	0.59 (0.45; 0.73) ug*hr/mL	no significant differences	–	–	–	–	–	–	0.46 ± 0.04	equal	~22
